The values below come from ChEMBL document CHEMBL1909046, “DrugMatrix in vitro pharmacology data”.

One may read the IC50 as the concentration needed to halve the response being measured. The Ki is the equilibrium dissociation constant of an inhibitor or competing ligand from its target.

The target in one series is Melanocortin receptor 4 (Homo sapiens, UniProt P32245). The class given is cell membranes, Membrane. Particulars: hek293. Note: in other assays of this panel Not Active means under 50% inhibition at 10 µM.
Sequence of Melanocortin receptor 4 (P32245 whole entry): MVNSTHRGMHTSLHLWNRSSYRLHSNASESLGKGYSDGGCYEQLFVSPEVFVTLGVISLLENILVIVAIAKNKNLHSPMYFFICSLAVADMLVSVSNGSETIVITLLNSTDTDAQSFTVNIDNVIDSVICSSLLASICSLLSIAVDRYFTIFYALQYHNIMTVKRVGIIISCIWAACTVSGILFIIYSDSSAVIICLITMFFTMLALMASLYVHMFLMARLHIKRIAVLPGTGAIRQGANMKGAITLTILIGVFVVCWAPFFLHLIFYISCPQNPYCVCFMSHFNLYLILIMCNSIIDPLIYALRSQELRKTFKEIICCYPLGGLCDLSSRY
A short description of series [1]: DRUGMATRIX: Serotonin (5-Hydroxytryptamine) 5-HT3 radioligand binding (ligand: [3H] GR-65630). The class given is cell membranes, Membrane. The note with it: hek293; Not Active = under 50% inhibition at 10 µM.
Series [2] deals with cGMP-specific 3',5'-cyclic phosphodiesterase (Homo sapiens, UniProt O76074). Description: DRUGMATRIX: Phosphodiesterase PDE5 enzyme inhibition (substrate: [3H]cGMP + cGMP). The class given is tissue-based, Platelet. Particulars: platelet; Not Active = under 50% inhibition at 10 µM.
For the next series, the target named is Cytochrome P450 2D6 (Homo sapiens, UniProt P10635). Particulars: bti-tn-5b1-4. Note: in other assays of this panel Not Active means under 50% inhibition at 10 µM.
Sequence of Cytochrome P450 2D6 (P10635 whole entry): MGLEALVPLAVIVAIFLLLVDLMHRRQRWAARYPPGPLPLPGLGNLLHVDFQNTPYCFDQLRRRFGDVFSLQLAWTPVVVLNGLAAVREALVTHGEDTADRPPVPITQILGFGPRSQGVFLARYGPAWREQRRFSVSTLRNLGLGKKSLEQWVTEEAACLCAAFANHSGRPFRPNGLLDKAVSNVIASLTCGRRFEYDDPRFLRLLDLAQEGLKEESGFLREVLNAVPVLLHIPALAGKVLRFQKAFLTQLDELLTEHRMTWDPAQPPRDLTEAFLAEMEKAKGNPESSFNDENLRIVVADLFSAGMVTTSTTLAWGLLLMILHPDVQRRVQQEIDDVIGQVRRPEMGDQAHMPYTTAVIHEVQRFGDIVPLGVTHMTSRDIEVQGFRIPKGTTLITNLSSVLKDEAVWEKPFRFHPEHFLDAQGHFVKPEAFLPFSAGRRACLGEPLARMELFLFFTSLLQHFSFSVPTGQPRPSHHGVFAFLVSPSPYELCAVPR
The target of the next series is T1, Calcitonin receptor (Homo sapiens, UniProt P30988). Note: in other assays of this panel Not Active means under 50% inhibition at 10 µM.
T1 sequence (P30988 whole entry): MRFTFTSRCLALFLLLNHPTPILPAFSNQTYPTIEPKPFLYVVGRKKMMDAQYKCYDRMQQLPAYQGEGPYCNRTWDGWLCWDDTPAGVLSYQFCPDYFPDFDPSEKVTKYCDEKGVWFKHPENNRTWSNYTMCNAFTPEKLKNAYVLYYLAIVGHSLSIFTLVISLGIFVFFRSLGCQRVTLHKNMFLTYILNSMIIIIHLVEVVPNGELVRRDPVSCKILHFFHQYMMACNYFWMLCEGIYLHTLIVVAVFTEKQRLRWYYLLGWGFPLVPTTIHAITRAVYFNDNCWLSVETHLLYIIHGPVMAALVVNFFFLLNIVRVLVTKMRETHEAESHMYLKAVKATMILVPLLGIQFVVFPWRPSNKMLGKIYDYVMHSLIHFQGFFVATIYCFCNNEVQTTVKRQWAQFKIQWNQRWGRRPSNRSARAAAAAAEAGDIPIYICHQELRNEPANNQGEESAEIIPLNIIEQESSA
Type of series: cell membranes, Membrane. Particulars: t47d.

The target in series [3] is Tyrosine-protein kinase Lck (Homo sapiens, UniProt P06239). Put plainly: DRUGMATRIX: Protein Tyrosine Kinase, LCK enzyme inhibition (substrate: Poly(Glu:Tyr)). The class given is cell-based, Insect cells. The note with it: Not Active = under 50% inhibition at 10 µM.
Sequence of Tyrosine-protein kinase Lck (P06239 whole entry): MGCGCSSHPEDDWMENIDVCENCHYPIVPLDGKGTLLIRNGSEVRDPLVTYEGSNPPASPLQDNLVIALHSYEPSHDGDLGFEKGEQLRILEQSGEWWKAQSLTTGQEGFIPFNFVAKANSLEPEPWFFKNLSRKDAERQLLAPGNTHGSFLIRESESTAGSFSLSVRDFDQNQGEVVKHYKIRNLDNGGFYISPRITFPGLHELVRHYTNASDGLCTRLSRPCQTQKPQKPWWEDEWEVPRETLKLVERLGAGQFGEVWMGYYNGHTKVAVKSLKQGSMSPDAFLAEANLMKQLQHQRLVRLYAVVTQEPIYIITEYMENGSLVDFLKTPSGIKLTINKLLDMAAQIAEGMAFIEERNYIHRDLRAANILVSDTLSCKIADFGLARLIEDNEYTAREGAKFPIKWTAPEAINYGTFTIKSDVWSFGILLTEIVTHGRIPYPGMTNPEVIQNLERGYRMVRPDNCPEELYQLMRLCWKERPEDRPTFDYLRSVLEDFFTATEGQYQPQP
The target in another series is Vasopressin V1a receptor (Homo sapiens, UniProt P37288). The class given is cell membranes, Membrane. The note with it: hek293. Note: in other assays of this panel Not Active means under 50% inhibition at 10 µM.
Sequence of Vasopressin V1a receptor (P37288 whole entry): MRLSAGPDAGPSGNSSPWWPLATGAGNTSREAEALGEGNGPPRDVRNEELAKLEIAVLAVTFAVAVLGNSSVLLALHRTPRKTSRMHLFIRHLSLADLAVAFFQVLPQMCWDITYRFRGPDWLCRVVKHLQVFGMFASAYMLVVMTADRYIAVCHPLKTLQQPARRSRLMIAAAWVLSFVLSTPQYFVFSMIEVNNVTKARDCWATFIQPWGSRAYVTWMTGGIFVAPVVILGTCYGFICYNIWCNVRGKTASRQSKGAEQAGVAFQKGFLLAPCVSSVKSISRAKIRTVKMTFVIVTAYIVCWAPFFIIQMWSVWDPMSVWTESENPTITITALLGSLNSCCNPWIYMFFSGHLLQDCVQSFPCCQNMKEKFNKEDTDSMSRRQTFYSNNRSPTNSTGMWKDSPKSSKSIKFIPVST
The target in series [4] is T2, 5-hydroxytryptamine receptor 1A (Rattus norvegicus, UniProt P19327). Note: in other assays of this panel Not Active means under 50% inhibition at 10 µM.
T2 sequence (P19327 whole entry): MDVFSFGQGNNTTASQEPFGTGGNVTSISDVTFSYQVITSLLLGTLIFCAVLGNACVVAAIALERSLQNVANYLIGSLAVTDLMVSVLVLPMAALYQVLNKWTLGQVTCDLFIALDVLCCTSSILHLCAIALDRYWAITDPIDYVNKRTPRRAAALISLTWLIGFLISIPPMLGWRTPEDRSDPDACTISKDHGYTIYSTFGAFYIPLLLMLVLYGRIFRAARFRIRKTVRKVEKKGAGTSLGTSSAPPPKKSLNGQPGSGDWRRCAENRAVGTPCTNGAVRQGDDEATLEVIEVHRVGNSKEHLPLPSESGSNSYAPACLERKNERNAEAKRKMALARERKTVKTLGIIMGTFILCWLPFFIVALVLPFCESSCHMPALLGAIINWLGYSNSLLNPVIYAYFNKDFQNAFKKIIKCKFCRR
The class given is cell membranes, CHO-K1, Membrane.

In the case of `CN1C[C@H](C(=O)N[C@]2(C)O[C@@]3(O)[C@@H]4CCCN4C(=O)[C@H](Cc4ccccc4)N3C2=O)C=C2c3cccc4[nH]cc(c34)C[C@H]21` [ERGOTAMINE], the IC50 result at Melanocortin receptor 4 was “Not Active”; in series [1] it was “Not Active”; in series [2], “Not Active”; against Cytochrome P450 2D6, “Not Active”; at Calcitonin receptor it was “Not Active”; in series [3] (read-out: IC50), 6500 nM. For the same molecule, the IC50 result against Vasopressin V1a receptor was “Not Active”; in series [4] (read-out: IC50), 0.774 nM. Besides, the Ki result was “Not Active” in series [1], “Not Active” at Cytochrome P450 2D6 and 0.443 nM in series [4] (read-out: Ki).

Turning to `Cc1c(-c2ccccc2)oc2c(C(=O)OCCN3CCCCC3)cccc2c1=O` [FLAVOXATE], the IC50 result (on Melanocortin receptor 4; in series [1]; in series [2]; against Cytochrome P450 2D6; on Calcitonin receptor; in series [3] (insect cells)) was “Not Active” in each case. Besides, the IC50 result (against Vasopressin V1a receptor; in series [4] (cho-k1)) was “Not Active” in each case. Besides, the Ki result (in series [1]; on Cytochrome P450 2D6) was “Not Active” in each case.

As for `Nc1nc(=O)[nH]cc1F` [FLUCYTOSINE], the IC50 result (against Melanocortin receptor 4; in series [1]; in series [2]; on Cytochrome P450 2D6; at Calcitonin receptor; in series [3] (insect cells)) was “Not Active” throughout. Moreover, the IC50 entry (on Vasopressin V1a receptor; in series [4] (cho-k1)) was “Not Active” in each case. Also, the Ki entry (in series [1]; at Cytochrome P450 2D6) was “Not Active” each time.

Take `CC(=O)[C@@]1(O)CC[C@H]2[C@@H]3C[C@H](C)C4=CC(=O)C=C[C@]4(C)[C@@]3(F)[C@@H](O)C[C@@]21C` [FLUOROMETHOLONE]: the IC50 result (against Melanocortin receptor 4; in series [1]; in series [2]; at Cytochrome P450 2D6; at Calcitonin receptor; in series [3] (insect cells)) was “Not Active” each time. Moreover, the IC50 entry (against Vasopressin V1a receptor; in series [4] (cho-k1)) was “Not Active” in each case. Also, the Ki result (in series [1]; on Cytochrome P450 2D6) was “Not Active” each time.

On to `O=c1[nH]cc(F)c(=O)[nH]1` [FLUOROURACIL], for which the IC50 result (on Melanocortin receptor 4; in series [1]; in series [2]; at Cytochrome P450 2D6; on Calcitonin receptor; in series [3] (insect cells)) was “Not Active” in each case. Also, the IC50 entry (against Vasopressin V1a receptor; in series [4] (cho-k1)) was “Not Active” each time. In addition, the Ki result (in series [1]; at Cytochrome P450 2D6) was “Not Active” each time.

As for `CC(C)n1c(/C=C/C(O)CC(O)CC(=O)O)c(-c2ccc(F)cc2)c2ccccc21` (stereo unspecified) [FLUVASTATIN], the IC50 entry (on Melanocortin receptor 4; in series [1]; in series [2]; at Cytochrome P450 2D6; at Calcitonin receptor; in series [3] (insect cells)) was “Not Active” in each case. In addition, the IC50 result (against Vasopressin V1a receptor; in series [4] (cho-k1)) was “Not Active” in each case. Further, the Ki result (in series [1]; on Cytochrome P450 2D6) was “Not Active” each time.

As for `NCC1(CC(=O)O)CCCCC1` [GABAPENTIN], the IC50 entry (on Melanocortin receptor 4; in series [1]; in series [2]; against Cytochrome P450 2D6; on Calcitonin receptor; in series [3] (insect cells)) was “Not Active” each time. Further, the IC50 entry (against Vasopressin V1a receptor; in series [4] (cho-k1)) was “Not Active” in each case. The Ki entry (in series [1]; on Cytochrome P450 2D6) was “Not Active” throughout.

For `CC[N+](CC)(CC)CCOc1cccc(OCC[N+](CC)(CC)CC)c1OCC[N+](CC)(CC)CC.[I-].[I-].[I-]` [GALLAMINE TRIETHIODIDE], the half-maximal inhibitory concentration (IC50) entry (against Melanocortin receptor 4; in series [1]; in series [2]; at Cytochrome P450 2D6; at Calcitonin receptor; in series [3] (insect cells)) was “Not Active” each time. Moreover, the IC50 result (on Vasopressin V1a receptor; in series [4] (cho-k1)) was “Not Active” in each case. For the same molecule, the Ki result (in series [1]; on Cytochrome P450 2D6) was “Not Active” each time.

In the case of `Nc1nc2c(ncn2COC(CO)CO)c(=O)[nH]1` [GANCICLOVIR], the IC50 entry (at Melanocortin receptor 4; in series [1]; in series [2]; against Cytochrome P450 2D6; at Calcitonin receptor; in series [3] (insect cells)) was “Not Active” in each case. For the same molecule, the IC50 entry (on Vasopressin V1a receptor; in series [4] (cho-k1)) was “Not Active” throughout. For the same molecule, the Ki result (in series [1]; at Cytochrome P450 2D6) was “Not Active” in each case.

As for `COc1c(N2CCNC(C)C2)c(F)cc2c(=O)c(C(=O)O)cn(C3CC3)c12` (stereo unspecified) [GATIFLOXACIN], the IC50 entry (at Melanocortin receptor 4; in series [1]; in series [2]; at Cytochrome P450 2D6; on Calcitonin receptor; in series [3] (insect cells)) was “Not Active” in each case. The IC50 entry (at Vasopressin V1a receptor; in series [4] (cho-k1)) was “Not Active” each time. Also, the Ki result (in series [1]; on Cytochrome P450 2D6) was “Not Active” in each case.

For `CC1(C)[C@@H](O[C@H]2O[C@H](C(=O)O)[C@@H](O)[C@H](O)[C@H]2O[C@@H]2O[C@H](C(=O)O)[C@@H](O)[C@H](O)[C@H]2O)CC[C@]2(C)[C@H]3C(=O)C=C4[C@@H]5C[C@@](C)(C(=O)O)CC[C@]5(C)CC[C@@]4(C)[C@]3(C)CC[C@@H]12` [GLYCYRRHIZIN], the IC50 entry (against Melanocortin receptor 4; in series [1]; in series [2]; at Cytochrome P450 2D6; at Calcitonin receptor; in series [3] (insect cells)) was “Not Active” each time. Besides, the IC50 result (against Vasopressin V1a receptor; in series [4] (cho-k1)) was “Not Active” each time. The Ki result (in series [1]; at Cytochrome P450 2D6) was “Not Active” throughout.

For `COC1=CC(=O)C[C@@H](C)[C@]12Oc1c(Cl)c(OC)cc(OC)c1C2=O` [GRISEOFULVIN], the IC50 result (at Melanocortin receptor 4; in series [1]; in series [2]; at Cytochrome P450 2D6; on Calcitonin receptor; in series [3] (insect cells)) was “Not Active” in each case. Also, the IC50 entry (at Vasopressin V1a receptor; in series [4] (cho-k1)) was “Not Active” in each case. The Ki entry (in series [1]; on Cytochrome P450 2D6) was “Not Active” throughout.

Turning to `C/C=C1\[C@H]2C=C(C)C[C@]1(N)c1ccc(=O)[nH]c1C2` [HUPERZINE A], the IC50 entry (at Melanocortin receptor 4; in series [1]; in series [2]; at Cytochrome P450 2D6; on Calcitonin receptor; in series [3] (insect cells)) was “Not Active” each time. The IC50 entry (on Vasopressin V1a receptor; in series [4] (cho-k1)) was “Not Active” throughout. In addition, the inhibition constant Ki result (in series [1]; on Cytochrome P450 2D6) was “Not Active” each time.
